In PMC11191095, “QSAR Reveals Decreased Lipophilicity of Polar Residues Determines the Selectivity of Antimicrobial Peptide Activity” (ACS Omega, 2024):
Where a SMILES comes first, the peptide text is derived from it.

Assays:
Experiment in all cases: microbe, parasite or virus in culture
[1] = test system: C. parapsilosis NCPF 3209; type: cell-based; details: NCPF 3209, 20 h
Method: (§1) Antimicrobial activity was evaluated against a panel of 18 pathogens consisting of eight Gram-negative strains (E. coli NCTC 12923, E. coli LEC001, Pseudomonas aeruginosa PAO1, P. aeruginosa NCTC 13437, Acinetobacter baumannii ATCC 17978, A. baumannii AYE, Klebsiella pneumoniae M6, K. pneumoniae NCTC 13368), four Gram-positive strains (Staphylococcus aureus ATCC 9144, S. aureus NCTC 13616, S. aureus USA300, S. aureus 1199B) and six fungi (Candida auris TDG 1912, C. albicans NCPF 8018, C. krusei NCPF 3876, C. tropicalis NCPF 8760, and C. parapsilosis NCPF 3209). Pathogens were grown in noncation adjusted Mueller Hinton broth (MHB, for bacteria) or Roswell Park Memorial Institute (RPMI 1640) + 2% glucose (for fungi) at 37 °C with 180 rpm shaking and maintained on solid media (tryptic soy agar for bacteria and Sabouraud dextrose agar for fungi). For an antibiogram, see Suppl.
(§2) The 46 peptides were serially diluted (128 to 2 μg/mL) in media down polypropylene 96-well plates. Bacteria or fungi, diluted from an overnight culture to an OD600 of 0.01, were added to the serially diluted peptides at a 1:1 ratio resulting in a starting cell density of ∼5 × 10^5 CFU/mL. Plates were incubated at 37 °C for 20 h, and the optical density was determined spectrophotometrically at 600 nm. Minimum inhibition concentrations (MICs) were determined from a minimum of three biological repeats and are reported in μg/mL as well as μM. […] The MIC50 or MIC90 is defined as the lowest peptide concentration that results in 50% or 90% growth inhibition over a 20 h treatment period, respectively.

C. tropicalis NCPF 8760 = type: cell-based; details: NCPF 8760, 20 h
Method: as §1, §2

C. glabrata NCPF 8018 = type: cell-based; details: NCPF 8018, 20 h
Method: as §1, §2

C. albicans NCPF 3281 = type: cell-based; details: NCPF 3281, 20 h
Method: as §1, §2

C. krusei NCPF 3876 = type: cell-based; details: NCPF 3876, 20 h
Method: as §1, §2

K. pneumoniae NCTC 13368 = type: cell-based, Klebsiella pneumoniae
Method: as §1, §2

K. pneumoniae M6 = type: cell-based, Klebsiella pneumoniae
Method: as §1, §2

C. auris TDG 1912 = type: cell-based, Candida auris; details: TDG 1912, 20 h
Method: as §1, §2

E. coli NCTC 12923 = type: cell-based, Escherichia coli
Method: as §1, §2

E. coli LEC001 = type: cell-based, Escherichia coli
Method: as §1, §2

A. baumannii AYE = type: cell-based, Acinetobacter baumannii; details: 20 h
Method: as §1, §2

A. baumannii ATCC 17978 = type: cell-based, Acinetobacter baumannii
Method: as §1, §2

P. aeruginosa NCTC 13437 = type: cell-based, Pseudomonas aeruginosa
Method: as §1, §2

[2] = test system: S. aureus (MRSA) NCTC 13616; type: cell-based, Staphylococcus aureus
Method: as §1, §2

S. aureus (MRSA) USA300 = type: cell-based, Staphylococcus aureus; details: USA300, 20 h
Method: as §1, §2

[3] = test system: S. aureus (MSSA) ATCC 9144; type: cell-based, Staphylococcus aureus; details: ATCC 9144, 20 h
Method: as §1, §2

S. aureus (MRSA) 1199B = type: cell-based, Staphylococcus aureus; details: S. aureus (MRSA) 1199B (R); shown in µM
Method: as §1, §2

P. aeruginosa PAO1 = type: cell-based, Pseudomonas aeruginosa
Method: as §1, §2

Row | Compound | Modal MIC50 [1] | Modal MIC90 [1] | Modal MIC50 (C. tropicalis NCPF 8760) | Modal MIC90 (C. tropicalis NCPF 8760) | Modal MIC50 (C. glabrata NCPF 8018) | Modal MIC90 (C. glabrata NCPF 8018) | Modal MIC50 (C. albicans NCPF 3281) | Modal MIC90 (C. albicans NCPF 3281) | Modal MIC50 (C. krusei NCPF 3876) | Modal MIC90 (C. krusei NCPF 3876) | Modal MIC (K. pneumoniae NCTC 13368; NCTC 13368, 20 h) | Modal MIC (K. pneumoniae M6; M6, 20 h) | Modal MIC50 (C. auris TDG 1912) | Modal MIC90 (C. auris TDG 1912) | Modal MIC (E. coli NCTC 12923; NCTC 12923, 20 h) | Modal MIC (E. coli LEC001; LEC001, 20 h) | Modal MIC (A. baumannii AYE; AYE) | Modal MIC (A. baumannii ATCC 17978; ATCC 17978, 20 h) | Modal MIC (P. aeruginosa NCTC 13437; NCTC 13437, 20 h) | Modal MIC [3] | also measured
1 | CC[C@H](C)[C@H](NC(=O)[C@H](CCCCN)NC(=O)[C@H](CC(C)C)NC(=O)CNC(=O)[C@H](C)NC(=O)[C@H](CCCCN)NC(=O)[C@H](CC(C)C)NC(=O)[C@H](C)NC(=O)[C@H](CCCCN)NC(=O)CNC(=O)[C@H](CC(C)C)NC(=O)[C@H](Cc1ccccc1)NC(=O)[C@H](CO)NC(=O)[C@H](C)NC(=O)[C@H](CC(C)C)NC(=O)CN)C(=O)NCC(=O)N[C@@H](CO)C(=O)N[C@@H](Cc1c[nH]cn1)C(=O)N[C@@H](CC(C)C)C(=O)N[C@@H](CC(C)C)C(=O)NCC(=O)NCC(=O)N[C@@H](C)C(=O)N1CCC[C@H]1C(=O)N[C@@H](CCC(N)=O)C(=O)O [CPF-P2] (H-GLASFLGKALKAGLKIGSHLLGGAPQ-OH) | > 46 µM | > 46 µM | 5.8 µM | 5.8 µM | > 46 µM | > 46 µM | > 46 µM | > 46 µM | 23 µM | 23 µM | 46 µM | 46 µM | > 46 µM | > 46 µM | 2.9 µM | 5.8 µM | 2.9 µM | 1.4 µM | 46 µM | 1.4 µM | Modal MIC ([2]; NCTC 13616, 20 h): 1.4 µM; Modal MIC (S. aureus (MRSA) USA300): 2.9 µM
2 | CC[C@H](C)[C@H](NC(=O)[C@H](CCCCN)NC(=O)[C@H](CC(C)C)NC(=O)CNC(=O)[C@H](C)NC(=O)[C@H](CCCCN)NC(=O)[C@H](CC(C)C)NC(=O)[C@H](C)NC(=O)[C@H](CCCCN)NC(=O)CNC(=O)[C@H](CC(C)C)NC(=O)[C@@H](N)Cc1ccccc1)C(=O)NCC(=O)N[C@@H](CO)C(=O)N[C@@H](Cc1c[nH]cn1)C(=O)N[C@@H](CC(C)C)C(N)=O [CPF-P2a] (H-FLGKALKAGLKIGSHL-NH2) | > 74 µM | > 74 µM | > 74 µM | > 74 µM | > 74 µM | > 74 µM | > 74 µM | > 74 µM | > 74 µM | > 74 µM | – | – | > 74 µM | > 74 µM | 18.6 µM | 37.1 µM | 37.1 µM | 18.6 µM | – | – | Modal MIC (S. aureus (MRSA) 1199B): > 74 µM
3 | CC[C@H](C)[C@H](NC(=O)CNC(=O)[C@H](CCCNC(=N)N)NC(=O)[C@@H](N)Cc1c[nH]c2ccccc12)C(=O)N[C@@H](CCCNC(=N)N)C(=O)NCC(=O)N[C@@H](Cc1ccc(O)cc1)C(=O)N[C@@H](CCCCN)C(=O)NCC(=O)NCC(=O)N[C@@H](Cc1ccc(O)cc1)C(=O)N[C@H](C(=O)NCC(=O)N[C@@H](CCCNC(=N)N)C(=O)N[C@@H](Cc1ccccc1)C(=O)N[C@@H](CCCCN)C(=O)N[C@@H](CCC(N)=O)C(=O)N[C@H](C(=O)N[C@@H](CCCCN)C(=O)N[C@@H](Cc1ccc(O)cc1)C(N)=O)[C@@H](C)O)[C@@H](C)O [W-OmB-Ca] (H-WRGIRGYKGGYTGRFKQTKY-NH2) | > 52.5 µM | > 52.5 µM | > 52.5 µM | > 52.5 µM | > 52.5 µM | > 52.5 µM | > 52.5 µM | > 52.5 µM | > 52.5 µM | > 52.5 µM | – | – | – | – | 52.5 µM | – | 13.1 µM | 26.2 µM | – | 52.5 µM | –
4 | CC[C@H](C)[C@H](NC(=O)CNC(=O)[C@H](CO)NC(=O)[C@@H](N)Cc1c[nH]c2ccccc12)C(=O)N[C@@H](CCCNC(=N)N)C(=O)NCC(=O)N[C@@H](Cc1ccc(O)cc1)C(=O)N[C@@H](CCCCN)C(=O)NCC(=O)NCC(=O)N[C@@H](Cc1ccc(O)cc1)C(=O)N[C@@H](CCCCN)C(=O)NCC(=O)N[C@@H](CC(C)C)C(=O)N[C@@H](Cc1ccccc1)C(=O)N[C@@H](CCCCN)C(=O)N[C@@H](CCC(N)=O)C(=O)N[C@H](C(=O)N[C@@H](CC(N)=O)C(=O)N[C@@H](Cc1ccc(O)cc1)C(N)=O)[C@@H](C)O [W-OmC-Ca] (H-WSGIRGYKGGYKGLFKQTNY-NH2) | > 54.3 µM | > 54.3 µM | > 54.3 µM | > 54.3 µM | > 54.3 µM | > 54.3 µM | > 54.3 µM | > 54.3 µM | > 54.3 µM | > 54.3 µM | – | – | – | – | 54.3 µM | – | 54.3 µM | 54.3 µM | – | 54.3 µM | –
5 | CC[C@H](C)[C@H](NC(=O)[C@H](CCCCN)NC(=O)[C@H](CO)NC(=O)[C@H](C)NC(=O)[C@H](Cc1c[nH]c2ccccc12)NC(=O)CN)C(=O)NCC(=O)N[C@@H](CCC(N)=O)C(=O)N[C@H](C(=O)N[C@@H](CC(C)C)C(=O)NCC(=O)N[C@@H](CCCCN)C(=O)N[C@H](C(=O)N[C@@H](C)C(=O)N[C@@H](CCCCN)C(=O)N[C@H](C(=O)NCC(=O)N[C@@H](CC(C)C)C(=O)N[C@@H](CCCCN)C(=O)N[C@@H](CCC(=O)O)C(=O)N[C@@H](CC(C)C)C(=O)N[C@H](C(=O)N[C@@H](CCC(N)=O)C(=O)N1CCC[C@H]1C(=O)N[C@@H](CCCCN)C(=O)O)[C@@H](C)CC)C(C)C)[C@@H](C)CC)[C@@H](C)O [XPF] (H-GWASKIGQTLGKIAKVGLKELIQPK-OH) | > 46.5 µM | > 46.5 µM | 11.6 µM | 11.6 µM | > 46.5 µM | > 46.5 µM | > 46.5 µM | > 46.5 µM | > 46.5 µM | > 46.5 µM | 11.6 µM | 23.2 µM | – | – | 1.5 µM | 1.5 µM | 1.5 µM | 1.5 µM | 46.5 µM | 11.6 µM | Modal MIC (P. aeruginosa PAO1; PAO1, 20 h): 46.5 µM; Modal MIC ([2]; NCTC 13616, 20 h): 46.5 µM; Modal MIC (S. aureus (MRSA) USA300): 46.5 µM
6 | Colistin [reference compound] | – | – | – | – | – | – | – | – | – | – | – | – | – | – | – | – | – | – | – | – | Modal MIC (K. pneumoniae NCTC 13368; K. pneumoniae NCTC 13368 (R), MHB, 37 °C, 20 h, OD600, min. three biological repeats): 1 µg/mL; Modal MIC (K. pneumoniae M6; K. pneumoniae M6 (S), MHB, 37 °C, 20 h, OD600, min. three biological repeats): 2 µg/mL; Modal MIC (E. coli NCTC 12923; E. coli NCTC 12923 (S), MHB, ~5×10^5 CFU/mL, 37 °C, 20 h, OD600, min. three biological repeats): 0.0625 µg/mL; Modal MIC (E. coli LEC001; E. coli LEC001 (R), MHB, 37 °C, 20 h, OD600, min. three biological repeats): 2 µg/mL; Modal MIC (A. baumannii AYE; A. baumannii AYE (R), MHB, 37 °C, OD600, min. three biological repeats): 1 µg/mL; Modal MIC (A. baumannii ATCC 17978; A. baumannii ATCC 17978 (S), MHB, 37 °C, 20 h, OD600, min. three biological repeats): 1 µg/mL; Modal MIC (P. aeruginosa PAO1; P. aeruginosa PAO1 (S), MHB, 37 °C, 20 h, OD600, min. three biological repeats): 2 µg/mL; Modal MIC (P. aeruginosa NCTC 13437; P. aeruginosa NCTC 13437 (R), MHB, 37 °C, 20 h, OD600, min. three biological repeats): 4 µg/mL; Modal MIC ([2]; S. aureus (MRSA) NCTC 13616 (R), MHB, 37 °C, 20 h, OD600, min. three biological repeats): > 128 µg/mL
